Data published in PubChem BioAssay (NCI).
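Dose response: 5 concentrations. Exposure: 48 h. Format: 96-well plates. Endpoint: linear interpolation; highest concentration if not reached. Here, GI50 denotes the concentration required for 50% inhibition of growth. TGI denotes the concentration required for complete inhibition of growth.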

Legend:
Assay in all cases: inhibition of tumour cell growth, NCI panel, 48 h; in the data active = GI50 below about 0.43 µM; inactive = the rest
786-0 renal = test system: 786-0 renal
A498 renal = test system: A498 renal
A549 NSCLC = test system: A549 NSCLC
ACHN renal = test system: ACHN renal
BT-549 breast = test system: BT-549 breast
CAKI-1 renal = test system: CAKI-1 renal
CCRF-CEM leukemia = test system: CCRF-CEM leukemia
COLO 205 colon = test system: COLO 205 colon
DU-145 prostate = test system: DU-145 prostate
EKVX NSCLC = test system: EKVX NSCLC
HCC-2998 colon = test system: HCC-2998 colon
HCT-116 colon = test system: HCT-116 colon
HCT-15 colon = test system: HCT-15 colon
HOP-62 NSCLC = test system: HOP-62 NSCLC
HOP-92 NSCLC = test system: HOP-92 NSCLC
HS 578T breast = test system: HS 578T breast
HT29 colon = test system: HT29 colon
IGROV1 ovarian = test system: IGROV1 ovarian
K-562 leukemia = test system: K-562 leukemia
KM12 colon = test system: KM12 colon
LOX IMVI melanoma = test system: LOX IMVI melanoma
M14 melanoma = test system: M14 melanoma
MALME-3M melanoma = test system: MALME-3M melanoma
MCF7 breast = test system: MCF7 breast
MDA-MB-231 breast = test system: MDA-MB-231 breast
MDA-MB-435 = test system: MDA-MB-435
MOLT-4 leukemia = test system: MOLT-4 leukemia
NCI-H226 lung = test system: NCI-H226 lung
NCI-H23 lung = test system: NCI-H23 lung
NCI-H460 lung = test system: NCI-H460 lung
NCI-H522 lung = test system: NCI-H522 lung
OVCAR-3 ovarian = test system: OVCAR-3 ovarian
OVCAR-4 ovarian = test system: OVCAR-4 ovarian
OVCAR-5 ovarian = test system: OVCAR-5 ovarian
OVCAR-8 ovarian = test system: OVCAR-8 ovarian
PC-3 prostate = test system: PC-3 prostate
RPMI-8226 leukemia = test system: RPMI-8226 leukemia
RXF 393 renal = test system: RXF 393 renal
SF-268 CNS = test system: SF-268 CNS
SF-295 CNS = test system: SF-295 CNS
SF-539 CNS = test system: SF-539 CNS
SK-MEL-2 melanoma = test system: SK-MEL-2 melanoma
SK-MEL-28 melanoma = test system: SK-MEL-28 melanoma
SK-MEL-5 melanoma = test system: SK-MEL-5 melanoma
SK-OV-3 ovarian = test system: SK-OV-3 ovarian
SN12C renal = test system: SN12C renal
SNB-19 CNS = test system: SNB-19 CNS
SNB-75 CNS = test system: SNB-75 CNS
SW-620 colon = test system: SW-620 colon
T-47D breast = test system: T-47D breast
TK-10 renal = test system: TK-10 renal
U251 CNS = test system: U251 CNS
UACC-257 melanoma = test system: UACC-257 melanoma
UACC-62 melanoma = test system: UACC-62 melanoma
UO-31 renal = test system: UO-31 renal

CC1SC(c2ccc(Cl)c(Cl)c2)N(NC(=O)C(O)c2ccccc2)C1=O (stereo not given)
85.4 µM: TGI (A549 NSCLC)
90.1 µM: TGI (SNB-75 CNS)
82.2 µM: TGI (MOLT-4 leukemia)
77.6 µM: TGI (OVCAR-3 ovarian)
inactive: GI50 (786-0 renal) 79.6 µM | GI50 (A498 renal) 77.1 µM | GI50 (A549 NSCLC) 29.6 µM | GI50 (ACHN renal) 33.3 µM | GI50 (BT-549 breast) 45 µM | GI50 (CAKI-1 renal) 30.7 µM | GI50 (CCRF-CEM leukemia) 55.1 µM | GI50 (COLO 205 colon) 44.7 µM | GI50 (DU-145 prostate) 59.2 µM | GI50 (EKVX NSCLC) 43.7 µM | GI50 (HCC-2998 colon) 36.9 µM | GI50 (HCT-116 colon) 43.2 µM | GI50 (HCT-15 colon) 45.5 µM | GI50 (HOP-62 NSCLC) 85.1 µM | GI50 (HOP-92 NSCLC) 40.8 µM | GI50 (HS 578T breast) 51.1 µM | GI50 (HT29 colon) 32.3 µM | GI50 (IGROV1 ovarian) 28.5 µM | GI50 (K-562 leukemia) 57.1 µM | GI50 (KM12 colon) 42.6 µM | GI50 (LOX IMVI melanoma) 55.2 µM | GI50 (M14 melanoma) 42.5 µM | GI50 (MALME-3M melanoma) 46.2 µM | GI50 (MCF7 breast) 47.1 µM | GI50 (MDA-MB-231 breast) 31.3 µM | GI50 (MDA-MB-435) 41.8 µM | GI50 (MOLT-4 leukemia) 26.6 µM | GI50 (NCI-H226 lung) 33.6 µM | GI50 (NCI-H23 lung) 33.3 µM | GI50 (NCI-H460 lung) 33.5 µM | GI50 (NCI-H522 lung) 28.4 µM | GI50 (OVCAR-3 ovarian) 25.9 µM | GI50 (OVCAR-4 ovarian) 32.6 µM | GI50 (OVCAR-5 ovarian) 70.1 µM | GI50 (OVCAR-8 ovarian) 34.1 µM | GI50 (PC-3 prostate) 35 µM | GI50 (RPMI-8226 leukemia) 25 µM | GI50 (RXF 393 renal) 30.3 µM | GI50 (SF-268 CNS) 55.7 µM | GI50 (SF-295 CNS) 24.5 µM | GI50 (SF-539 CNS) 72.6 µM | GI50 (SK-MEL-2 melanoma) 45.4 µM | GI50 (SK-MEL-28 melanoma) 38.5 µM | GI50 (SK-MEL-5 melanoma) 38.1 µM | GI50 (SK-OV-3 ovarian) > 100 µM | GI50 (SN12C renal) 44.1 µM | GI50 (SNB-19 CNS) 93.2 µM | GI50 (SNB-75 CNS) 24.8 µM | GI50 (SW-620 colon) 77.2 µM | GI50 (T-47D breast) 67.5 µM | GI50 (TK-10 renal) 41.3 µM | GI50 (U251 CNS) 41 µM | GI50 (UACC-257 melanoma) 35.1 µM | GI50 (UACC-62 melanoma) 25.2 µM | GI50 (UO-31 renal) 36.6 µM
83.2 µM: TGI (RXF 393 renal)
67.5 µM: TGI (SF-295 CNS)
98.5 µM: TGI (NCI-H522 lung)
74.6 µM: TGI (IGROV1 ovarian)
91.2 µM: TGI (OVCAR-4 ovarian)
86.1 µM: TGI (UACC-62 melanoma)
> 100 µM: TGI (786-0 renal) | TGI (A498 renal) | TGI (ACHN renal) | TGI (BT-549 breast) | TGI (CAKI-1 renal) | TGI (CCRF-CEM leukemia) | TGI (COLO 205 colon) | TGI (DU-145 prostate) | TGI (EKVX NSCLC) | TGI (HCC-2998 colon) | TGI (HCT-116 colon) | TGI (HCT-15 colon) | TGI (HOP-62 NSCLC) | TGI (HOP-92 NSCLC) | TGI (HS 578T breast) | TGI (HT29 colon) | TGI (K-562 leukemia) | TGI (KM12 colon) | TGI (LOX IMVI melanoma) | TGI (M14 melanoma) | TGI (MALME-3M melanoma) | TGI (MCF7 breast) | TGI (MDA-MB-231 breast) | TGI (MDA-MB-435) | TGI (NCI-H226 lung) | TGI (NCI-H23 lung) | TGI (NCI-H460 lung) | TGI (OVCAR-5 ovarian) | TGI (OVCAR-8 ovarian) | TGI (PC-3 prostate) | TGI (SF-268 CNS) | TGI (SF-539 CNS) | TGI (SK-MEL-2 melanoma) | TGI (SK-MEL-28 melanoma) | TGI (SK-MEL-5 melanoma) | TGI (SK-OV-3 ovarian) | TGI (SN12C renal) | TGI (SNB-19 CNS) | TGI (SW-620 colon) | TGI (T-47D breast) | TGI (TK-10 renal) | TGI (U251 CNS) | TGI (UACC-257 melanoma) | TGI (UO-31 renal)
66 µM: TGI (RPMI-8226 leukemia)
